Experiments:
Interstitial collagenase = target: T1, Interstitial collagenase (Homo sapiens, UniProt P03956); assay: Inhibition of MMP1
T1 sequence (P03956 whole entry): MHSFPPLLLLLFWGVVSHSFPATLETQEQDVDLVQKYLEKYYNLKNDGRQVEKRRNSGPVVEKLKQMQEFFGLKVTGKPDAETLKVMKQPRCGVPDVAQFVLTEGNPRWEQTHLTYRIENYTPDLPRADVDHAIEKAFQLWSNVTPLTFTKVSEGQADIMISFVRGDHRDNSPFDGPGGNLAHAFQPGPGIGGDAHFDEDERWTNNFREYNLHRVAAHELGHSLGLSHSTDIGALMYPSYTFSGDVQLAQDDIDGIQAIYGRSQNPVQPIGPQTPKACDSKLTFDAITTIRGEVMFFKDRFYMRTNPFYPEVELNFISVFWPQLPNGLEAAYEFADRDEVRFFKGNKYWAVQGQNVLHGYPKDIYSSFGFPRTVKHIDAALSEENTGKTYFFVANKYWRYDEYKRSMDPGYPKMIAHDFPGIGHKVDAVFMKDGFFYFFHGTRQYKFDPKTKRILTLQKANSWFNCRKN

[1] = AUC in Sprague-Dawley rat at 10 mg/kg, po measured within 6 hrs after post-dosing by LC/MS/MS analysis; assay type: ADME, organism-based; set-up: time < 6 hr, dose 10 mg/kg, route oral; conditions: plasma
[2] = Plasma concentration in Sprague-Dawley rat at 10 mg/kg, po measured after 6 hrs by LC/MS/MS analysis; assay type: ADME, organism-based; set-up: dose 10 mg/kg, route oral
[3] = target: T2, Disintegrin and metalloproteinase domain-containing protein 17 (Homo sapiens, UniProt P78536); assay: Inhibition of TACE
[4] = target: Matrix metalloproteinase-14 (Homo sapiens, UniProt P50281); assay: Inhibition of MMP14
[5] = target: T2, Disintegrin and metalloproteinase domain-containing protein 17; assay: Inhibition of TACE by cell based assay
[6] = target: Matrix metalloproteinase-9 (Homo sapiens, UniProt P14780); assay: Inhibition of MMP9
[7] = target: T3, Disintegrin and metalloproteinase domain-containing protein 10 (Homo sapiens, UniProt O14672); assay: Inhibition of ADAM10
T3 sequence (O14672 whole entry): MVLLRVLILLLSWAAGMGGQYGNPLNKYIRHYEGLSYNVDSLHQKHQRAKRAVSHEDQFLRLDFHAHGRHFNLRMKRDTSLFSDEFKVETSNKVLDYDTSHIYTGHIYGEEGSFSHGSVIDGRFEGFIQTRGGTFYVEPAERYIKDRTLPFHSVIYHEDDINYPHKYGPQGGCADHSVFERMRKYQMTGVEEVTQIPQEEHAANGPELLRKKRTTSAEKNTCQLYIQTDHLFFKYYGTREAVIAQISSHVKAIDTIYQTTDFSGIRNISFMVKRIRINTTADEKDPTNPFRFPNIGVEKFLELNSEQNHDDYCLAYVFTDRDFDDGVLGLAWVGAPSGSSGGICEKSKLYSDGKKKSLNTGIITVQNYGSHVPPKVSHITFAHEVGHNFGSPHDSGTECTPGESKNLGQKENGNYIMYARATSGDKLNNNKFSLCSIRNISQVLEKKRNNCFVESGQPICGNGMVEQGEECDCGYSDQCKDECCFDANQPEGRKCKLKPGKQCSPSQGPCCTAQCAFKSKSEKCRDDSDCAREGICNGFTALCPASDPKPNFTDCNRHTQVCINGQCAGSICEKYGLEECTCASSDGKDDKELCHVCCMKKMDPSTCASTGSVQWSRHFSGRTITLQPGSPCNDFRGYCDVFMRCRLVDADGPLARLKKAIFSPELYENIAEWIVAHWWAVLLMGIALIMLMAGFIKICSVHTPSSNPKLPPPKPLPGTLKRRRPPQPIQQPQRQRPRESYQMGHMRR

Stromelysin-1 = Stromelysin-1 (Homo sapiens, UniProt P08254); assay: Inhibition of MMP3
[8] = target: 72 kDa type IV collagenase (Homo sapiens, UniProt P08253); assay: Inhibition of MMP2
Collagenase 3 = Collagenase 3 (Homo sapiens, UniProt P45452); assay: Inhibition of MMP13
Matrilysin = target: T4, Matrilysin (Homo sapiens, UniProt P09237); assay: Inhibition of MMP7
T4 sequence (P09237 whole entry): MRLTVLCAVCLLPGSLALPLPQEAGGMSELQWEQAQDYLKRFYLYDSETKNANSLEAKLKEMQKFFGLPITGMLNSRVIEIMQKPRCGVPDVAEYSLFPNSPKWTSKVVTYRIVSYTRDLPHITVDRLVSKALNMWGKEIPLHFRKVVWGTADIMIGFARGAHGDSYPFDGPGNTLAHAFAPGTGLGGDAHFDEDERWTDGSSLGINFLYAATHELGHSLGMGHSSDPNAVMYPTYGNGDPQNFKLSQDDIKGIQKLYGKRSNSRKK

T2 sequence (P78536 whole entry, the tested form may be a part): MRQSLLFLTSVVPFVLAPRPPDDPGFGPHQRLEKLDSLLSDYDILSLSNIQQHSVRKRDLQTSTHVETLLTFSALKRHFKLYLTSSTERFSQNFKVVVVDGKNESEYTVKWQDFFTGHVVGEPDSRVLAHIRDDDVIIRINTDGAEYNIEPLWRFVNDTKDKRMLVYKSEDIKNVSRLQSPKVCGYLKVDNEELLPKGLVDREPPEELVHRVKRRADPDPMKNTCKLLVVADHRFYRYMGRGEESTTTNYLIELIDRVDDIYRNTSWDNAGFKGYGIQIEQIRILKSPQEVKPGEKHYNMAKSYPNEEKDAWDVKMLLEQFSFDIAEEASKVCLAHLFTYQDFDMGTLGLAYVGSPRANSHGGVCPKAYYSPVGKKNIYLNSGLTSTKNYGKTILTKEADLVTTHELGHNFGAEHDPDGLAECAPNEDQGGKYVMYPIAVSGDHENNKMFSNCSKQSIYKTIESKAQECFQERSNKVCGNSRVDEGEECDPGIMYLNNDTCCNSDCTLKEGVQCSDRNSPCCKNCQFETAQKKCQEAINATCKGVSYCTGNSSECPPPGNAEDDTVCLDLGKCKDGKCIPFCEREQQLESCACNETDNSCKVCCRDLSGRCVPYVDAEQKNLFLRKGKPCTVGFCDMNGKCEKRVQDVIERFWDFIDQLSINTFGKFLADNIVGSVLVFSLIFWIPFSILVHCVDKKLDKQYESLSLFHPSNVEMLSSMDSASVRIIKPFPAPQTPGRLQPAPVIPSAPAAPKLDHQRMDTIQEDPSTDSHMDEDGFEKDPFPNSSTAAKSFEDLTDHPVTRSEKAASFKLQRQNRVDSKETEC
Chain of Stromelysin-1 (P08254 whole entry): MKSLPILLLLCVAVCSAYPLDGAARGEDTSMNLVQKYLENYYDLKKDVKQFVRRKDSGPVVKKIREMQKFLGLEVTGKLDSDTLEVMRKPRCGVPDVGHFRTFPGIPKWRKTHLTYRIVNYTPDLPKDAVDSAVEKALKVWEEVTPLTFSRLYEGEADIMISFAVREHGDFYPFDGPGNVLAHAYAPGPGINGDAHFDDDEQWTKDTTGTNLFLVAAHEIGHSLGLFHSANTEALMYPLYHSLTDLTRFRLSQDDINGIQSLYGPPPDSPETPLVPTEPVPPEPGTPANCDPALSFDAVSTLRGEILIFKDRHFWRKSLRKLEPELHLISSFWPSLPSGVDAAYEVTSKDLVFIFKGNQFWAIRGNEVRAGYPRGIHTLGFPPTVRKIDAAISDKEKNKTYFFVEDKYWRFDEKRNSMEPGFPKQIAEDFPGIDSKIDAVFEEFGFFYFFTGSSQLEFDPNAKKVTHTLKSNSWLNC
Chain of Matrix metalloproteinase-9 (P14780 whole entry, the tested form may be a part): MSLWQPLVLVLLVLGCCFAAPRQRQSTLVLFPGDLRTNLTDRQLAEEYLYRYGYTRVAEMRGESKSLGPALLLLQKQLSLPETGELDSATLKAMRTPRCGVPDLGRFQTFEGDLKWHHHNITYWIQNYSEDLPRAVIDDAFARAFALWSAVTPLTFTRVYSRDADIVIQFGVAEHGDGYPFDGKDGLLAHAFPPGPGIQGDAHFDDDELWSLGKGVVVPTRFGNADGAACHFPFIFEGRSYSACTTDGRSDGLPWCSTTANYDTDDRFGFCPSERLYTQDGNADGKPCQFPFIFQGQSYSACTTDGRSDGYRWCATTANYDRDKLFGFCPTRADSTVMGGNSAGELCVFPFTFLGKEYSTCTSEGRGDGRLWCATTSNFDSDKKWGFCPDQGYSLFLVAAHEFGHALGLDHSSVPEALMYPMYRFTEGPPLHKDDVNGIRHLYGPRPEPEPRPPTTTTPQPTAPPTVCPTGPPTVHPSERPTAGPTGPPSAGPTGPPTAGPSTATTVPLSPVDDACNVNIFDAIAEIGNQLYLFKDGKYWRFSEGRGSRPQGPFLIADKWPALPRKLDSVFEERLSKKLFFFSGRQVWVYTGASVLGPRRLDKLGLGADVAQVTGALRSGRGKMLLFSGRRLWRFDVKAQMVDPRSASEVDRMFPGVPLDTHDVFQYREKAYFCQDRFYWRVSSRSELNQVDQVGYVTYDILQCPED
Chain of 72 kDa type IV collagenase (P08253 whole entry): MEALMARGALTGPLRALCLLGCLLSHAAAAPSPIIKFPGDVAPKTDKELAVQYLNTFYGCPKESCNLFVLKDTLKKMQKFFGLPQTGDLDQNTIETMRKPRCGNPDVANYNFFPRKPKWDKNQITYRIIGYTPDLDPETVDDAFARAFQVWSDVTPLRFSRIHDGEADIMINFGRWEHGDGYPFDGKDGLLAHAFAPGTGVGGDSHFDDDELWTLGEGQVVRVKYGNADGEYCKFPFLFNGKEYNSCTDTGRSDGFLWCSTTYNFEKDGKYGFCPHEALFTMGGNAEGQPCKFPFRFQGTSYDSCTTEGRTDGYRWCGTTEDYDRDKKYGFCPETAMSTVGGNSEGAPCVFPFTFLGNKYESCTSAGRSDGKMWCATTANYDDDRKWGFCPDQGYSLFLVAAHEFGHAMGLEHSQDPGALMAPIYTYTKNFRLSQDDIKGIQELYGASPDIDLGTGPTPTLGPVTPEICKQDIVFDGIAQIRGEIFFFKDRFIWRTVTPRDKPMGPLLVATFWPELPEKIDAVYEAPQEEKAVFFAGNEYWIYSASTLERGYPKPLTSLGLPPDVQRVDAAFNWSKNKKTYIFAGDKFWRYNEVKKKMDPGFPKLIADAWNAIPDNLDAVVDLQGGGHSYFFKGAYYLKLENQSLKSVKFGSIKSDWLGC

Compound | Ki (Interstitial collagenase) | AUC at 6 h [1] | concentration at 6 h [2] | Ki [3] | Ki [4] | IC50 [5] | Ki [6] | Ki [7] | Ki (Stromelysin-1) | Ki [8] | Ki (Collagenase 3) | Ki (Matrilysin)
C[C@@H](NC(=O)[C@H](O)[C@@H](O)C(=O)N1CCC[C@@H]1c1cccc(Cl)c1)c1ccc(-n2cccn2)cc1 | > 100 µM | 2.95 µM·h | 0.096 µM | 0.0008 µM | – | – | – | – | – | – | – | –
C[C@@H](NC(=O)[C@H](O)[C@@H](O)C(=O)N1CCC[C@@H]1c1csc(NC2CC2)n1)c1ccc(-n2cccn2)cc1 | > 40 µM | 134 µM·h | 17.6 µM | 0.005 µM | > 40 µM | 3.02 µM | > 40 µM | 1.35 µM | > 40 µM | 20.5 µM | > 40 µM | 18.1 µM
CNc1nc([C@H]2c3ccccc3CN2C(=O)[C@H](O)[C@@H](O)C(=O)N[C@H](C)c2ccc(-n3cccn3)cc2)cs1 | > 40 µM | 1.13 µM·h | – | 0.001 µM | 16.4 µM | 0.416 µM | 10.1 µM | 0.12 µM | > 40 µM | > 40 µM | 14.1 µM | 13.5 µM

— ChEMBL document CHEMBL1770127, “2-(2-Aminothiazol-4-yl)pyrrolidine-based tartrate diamides as potent, selective and orally bioavailable TACE inhibitors” (Bioorg Med Chem Lett, 2011)
